The results in this text go back to patent US6635786B2, “Symmetrically disubstituted aromatic compounds and pharmaceutical compositions for inhibiting poly (ADP-ribose) glycohydrolase, and methods for their use” (Guilford Pharmaceuticals, Inc., priority 2001, dated 2003).

A word on the IC50: it is the point on the concentration scale where inhibition reaches its midpoint.

The assay has as its target T1, human PARG (Homo sapiens, UniProt Q86W56).
T1 construct: human PARG from amino acid 378 to 976; GST (glutathione-S-transferase, pGEX-4T1) (N); made in house; host or cells: E. coli BL21
Put plainly: PARG enzymatic assay. It counts as biochemical. As to conditions: recombinant GST-fused human PARG (aa 378-976); 3H-labeled poly-(ADP-ribose) substrate; 23° C., 10 min. Here is the method:
The potency of PARG inhibition was determined in a PARG enzymatic assay. For each compound, various doses were used to inhibit the PARG reaction. A dose responsible curve was generated to determine the IC50 value and the concentration (in μM) required to achieve 50% inhibition of the reaction.
The PARG assay consisted of (a) preparation of 3H-labeled radioactive PARG as substrate, (b) purification of recombinant PARG, (c) incubation of the compound with the PARG reaction, (d) separation of the product by absorption to glass fiber filter and quantifying the radioactivity of ADP-ribose by scintillation counting.
3H-labeled poly-(ADP-ribose) was made by mixing labeled and unlabeled PAR. Labeled PAR was synthesized in a reaction of 50 mM Tris-HCl (pH 8.0), 4 mM MgCl2, 0.8 μg/mL activated DNA, 3 μM NAD, NEN 3H-NAD (0.1 mCi/mL), 0.8 μl/mL and 1.4 μl/mL Trevigen PARP. The reaction was incubated at room temperature for 60 min, then dialyzed to remove unincorporated 3H NAD using a MWCO 7000 dialysis cassette in 50 mM Phosphate buffer (pH 7.1) at 5° C. over night. Buffer was changed and dialysis continued for 2 h in the morning. The resulting 3H PAR gave 80,000 DPM/10 μL by scintillation counting.
Unlabeled PAR was synthesized in a reaction that consisted of 50 mM Tris-HCl (pH 8.0), 4 mM MgCl2, 0.8 μg/mL activated DNA, 150 μM NAD, and 1.9 μl/mL Trevigen PARP. The reaction was incubated at room temperature for 60 min, and dialyzed to remove unincorporated NAD in a MWCO 7000 cassette using 50 mM Phosphate buffer (pH 7.1) over night at […]. Buffer was changed and dialysis continued for 2 h in the morning. The OD260 of synthesized PAR is […].
The final PAR mix is made by combining 3H-PAR and PAR synthesized @ 150 μM NAD so that the OD260=0.2-0.3 and the DPM/10 μL=10,000 DPM (SA=0.45 Ci/mmole). EDTA was added to 1 mM.
A cDNA fragment encoding the carboxy terminal part of human PARG from amino acid 378 to 976 was amplified by polymerase chain reaction with human thymus cDNA (Clontech, Palo Alto, Calif.) as a template and a pair of primers with the sequences of 5′-[…]-3′ and 5′-[…]-3′. The primers contained the restriction enzyme sites EcoRI and XhoI. The PCR amplified PARG DNA fragment was digested with EcoRI and XhoI, and then ligated to the same sites in pGEX-4T1 plasmid (acquired from Pharmacia/Upjohn Co., Kalamazoo, Mich.) to create pGEX-PARG by using standard molecular biology procedure. The pGEX-PARG was transformed into E. coli strain BL21 for expressing the recombinant protein that has a glutathione-S-transferase at the amino terminus and fused in frame with PARG at the carboxy terminus. The recombinant protein was expressed and purified using glutathione-sephadex 4B beads according to the standard methodology.
A range of potential PARG inhibitors at final concentrations of 200.0 to 0.1 μM were tested, each point done in triplicate. The compounds were dissolved in DMSO resulting in a final DMSO concentration of 5.0%. The reaction was carried out in a volume of 0.1 mL. PARG enzyme was added to a concentration of 0.05 μL/mL to microtiter plates containing approximately 10 μM 3H-labeled poly-(ADP-ribose) in 50 mM Phosphate buffer (pH 7.1), 5 mM B-mercaptoethanol. The reaction was incubated at 23° C. for 10 min. and was stopped with the addition of TCA to a final concentration of 10%.
Enzyme activity was measured by the disappearance of substrate, [poly-(ADP-ribose) polymer], which was quantified as the loss of glass fiber filter adsorbed radioactivity. The reaction was harvested onto Millipore GFC96 well filter plates using the Packard Cell Harvestor. The plates were washed three times with 70% ethanol, air dried, and the radioactivity was measured by scintillation counting.

T1 sequence (Q86W56 378-976): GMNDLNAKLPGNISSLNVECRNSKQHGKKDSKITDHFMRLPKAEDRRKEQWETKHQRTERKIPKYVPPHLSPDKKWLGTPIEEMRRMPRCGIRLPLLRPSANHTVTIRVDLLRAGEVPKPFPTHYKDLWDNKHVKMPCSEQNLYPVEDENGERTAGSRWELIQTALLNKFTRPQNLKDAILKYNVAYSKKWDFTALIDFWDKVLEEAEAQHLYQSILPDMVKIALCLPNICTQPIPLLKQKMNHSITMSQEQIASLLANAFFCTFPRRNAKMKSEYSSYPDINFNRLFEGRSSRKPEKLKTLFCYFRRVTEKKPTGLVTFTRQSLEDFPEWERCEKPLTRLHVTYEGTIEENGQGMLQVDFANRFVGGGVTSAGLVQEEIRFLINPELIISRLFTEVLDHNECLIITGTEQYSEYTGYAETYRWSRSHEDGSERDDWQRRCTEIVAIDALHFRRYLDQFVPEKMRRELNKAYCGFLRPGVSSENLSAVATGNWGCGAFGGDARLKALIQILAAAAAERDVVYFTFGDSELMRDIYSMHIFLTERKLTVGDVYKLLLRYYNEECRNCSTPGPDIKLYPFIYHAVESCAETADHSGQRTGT

“3,9-Bis[3-(1-pyrrolo)propionyl]fluoranthene [Example 55]”: the IC50 turned out to be 27.3 µM. To “3,9-Bis{N-[(2,3-dimethoxy-phenyl)]-methyl}fluoranthenedicarboxamide [Example 34]” belongs 31.2 µM; to `O=C(OCc1ccc(F)cc1)c1ccc2c(c1)C(Cl)(Cl)c1cc(C(=O)OCc3ccc(F)cc3)ccc1-2` [Example 4, 9,9-Dichloro-9H-fluorene-2,7-dicarboxylic acid bis-(p-fluorobenzyl) ester], 18.9 µM.

Consider `O=C(OCCc1ccccc1)c1ccc2c(c1)C(Cl)(Cl)c1cc(C(=O)OCCc3ccccc3)ccc1-2` [Example 5, 9,9-Dichloro-9H-fluorene-2,7-dicarboxylic acid bis-(2-phenyl-ethyl) ester], for which the IC50 was determined as 11.2 µM. To `O=C(OCc1ccc(O)c(O)c1)c1ccc2c(c1)C(Cl)(Cl)c1cc(C(=O)OCc3ccc(O)c(O)c3)ccc1-2` [Example 6, 9,9-Dichloro-9H-fluorene-2,7-dicarboxylic acid bis-(3,4-dihydroxy-benzyl) ester] belongs 10 µM.

On to `COC(=O)c1ccc2c(c1)C(Cl)(Cl)c1cc(C(=O)OC)ccc1-2` [Example 7, 9,9-Dichloro-9H-fluorene-2,7-dicarboxylic acid bis-methyl ester], for which the IC50 came to 45.6 µM. Take `O=C(OCCc1cccc2ccccc12)c1ccc2c(c1)C(Cl)(Cl)c1cc(C(=O)OCCc3cccc4ccccc34)ccc1-2` [Example 8, 9,9-Dichloro-9H-fluorene-2,7-dicarboxylic acid bis-(2-naphthalen-1-yl-ethyl) ester]: the IC50 amounted to 17.1 µM. In the case of `O=C(OCCc1ccc2ccccc2c1)c1ccc2c(c1)C(Cl)(Cl)c1cc(C(=O)OCCc3ccc4ccccc4c3)ccc1-2` [Example 9, 9,9-Dichloro-9H-fluorene-2,7-dicarboxylic acid bis-(2-naphthalen-2-yl-ethyl) ester], the IC50 was 46.6 µM. The same measure for `O=C(OCc1ccc2ccccc2c1)c1ccc2c(c1)C(Cl)(Cl)c1cc(C(=O)OCc3ccc4ccccc4c3)ccc1-2` [Example 10, 9,9-Dichloro-9H-fluorene-2,7-dicarboxylic acid bis-(2-naphthalen-2-yl-methyl) ester]: 27.1 µM; for `O=C(OCc1cccc2ccccc12)c1ccc2c(c1)C(Cl)(Cl)c1cc(C(=O)OCc3cccc4ccccc34)ccc1-2` [Example 11, 9,9-Dichloro-9H-fluorene-2,7-dicarboxylic acid bis-(2-naphthalen-1-yl-methyl) ester]: 7.9 µM. Turning to `COc1ccc(CCCCOC(=O)c2ccc3c(c2)C(Cl)(Cl)c2cc(C(=O)OCCCCc4ccc(OC)cc4)ccc2-3)cc1` [Example 12, 9,9-Dichloro-9H-fluorene-2,7-dicarboxylic acid bis-[4-(4-methoxy-phenyl)-butyl]ester], the IC50 was 18.3 µM. To `O=C(NCc1cccc2ccccc12)c1ccc2c(c1)C(Cl)(Cl)c1cc(C(=O)NCc3cccc4ccccc34)ccc1-2` [Example 14, 2,7 Bis-[N-(naphthalen-1-ylmethyl)-carbamoyl]-9,9-dichloro-9H-fluorene] belongs 47.7 µM; to `O=C(NCCc1ccccc1)c1ccc2c(c1)C(Cl)(Cl)c1cc(C(=O)NCCc3ccccc3)ccc1-2` [Example 15, 2,7-Bis-[N-(phenethyl)-carbamoyl]-9,9-dichloro-9H-fluorene], 24.9 µM. As to `O=C(NCc1ccccc1)c1ccc2c(c1)C(=O)c1cc(C(=O)NCc3ccccc3)ccc1-2` [Example 17, 2,7-Bis(N-benzylcarbamoyl)-9-Oxo-9H-fluorene], the 50% inhibitory concentration (IC50) was found to be 21.8 µM. The same measure for `O=C(NCc1ccccc1)c1ccc(C(=O)c2ccc(C(=O)NCc3ccccc3)cc2)cc1` [Example 19, 4,4′-Bis(N-benzyl)carbamoyl-benzophenone]: 75 µM; for `O=C(NCCCc1ccccc1)c1ccc(C(=O)c2ccc(C(=O)NCCCc3ccccc3)cc2)cc1` [Example 20, 4,4′-Bis(N-phenpropyl)carbamoyl-benzophenone]: 40.1 µM.

Turning to `O=C(NCCc1ccccc1)c1cccc(C(=O)c2cccc(C(=O)NCCc3ccccc3)c2)c1` [Example 21, 3,3′-Bis(N-phenethyl)carbamoyl-benzophenone], the IC50 stood at 65.6 µM. The same measure for `O=C(NCc1ccccc1)c1ccc2c(c1)-c1ccc(C(=O)NCc3ccccc3)c3cccc-2c13` [Example 23, 3,9-Bis(N-phenylmethyl)fluoranthenedicarboxamide]: 35.2 µM. To `O=C(NCCN1CCCCC1)c1ccc2c(c1)-c1ccc(C(=O)NCCN3CCCCC3)c3cccc-2c13` [Example 24, 3,9-Bis[N-(2-piperidin-1-yl)ethyl]fluoranthenedicarboxamide] belongs 57 µM; to `O=C(NCCN1CCCC1)c1ccc2c(c1)-c1ccc(C(=O)NCCN3CCCC3)c3cccc-2c13` [Example 25, 3,9-Bis[N-(2-pyrrolidin-1-yl)-ethyl]fluoranthenedicarboxamide], 28.6 µM.

For the compound `O=C(NCc1cccnc1)c1ccc2c(c1)-c1ccc(C(=O)NCc3cccnc3)c3cccc-2c13` [Example 26, 3,9-Bis[N-(pyridin-3-yl)methyl]fluoranthenedicarboxamide], the IC50 came to 100 µM.

Turning to `O=C(NCCCN1CCOCC1)c1ccc2c(c1)-c1ccc(C(=O)NCCCN3CCOCC3)c3cccc-2c13` [Example 27], the IC50 was found to be 100 µM. The same measure for `COc1ccc(CNC(=O)c2ccc3c(c2)-c2ccc(C(=O)NCc4ccc(OC)c(OC)c4)c4cccc-3c24)cc1OC` [Example 28, 3,9-Bis[N-(3,4-dimethoxy-benzyl)]fluoranthenedicarboxamide]: 11.1 µM; for `O=C(NCCOc1ccccc1)c1ccc2c(c1)-c1ccc(C(=O)NCCOc3ccccc3)c3cccc-2c13` [Example 29, 3,9-Bis[N-(2-phenoxy)ethyl]fluoranthenedicarboxamide]: 29 µM; for `O=C(NCCc1ccc(Cl)cc1Cl)c1ccc2c(c1)-c1ccc(C(=O)NCCc3ccc(Cl)cc3Cl)c3cccc-2c13` [Example 30, 3,9-Bis[N-[2-(2,4-dichloro-phenyl)]-ethyl]fluoranthenedicarboxamide]: 21.2 µM. The same measure for `N#CC1CCC(CNC(=O)c2ccc3c(c2)-c2ccc(C(=O)NCC4CCC(C#N)CC4)c4cccc-3c24)CC1` (stereo not drawn) [Example 31]: 30.4 µM. The same measure for `COc1ccccc1CCNC(=O)c1ccc2c(c1)-c1ccc(C(=O)NCCc3ccccc3OC)c3cccc-2c13` [Example 32, 3,9-Bis{N-[2-(2-methoxy-phenyl)]-ethyl}fluoranthenedicarboxamide]: 21.1 µM; for `COc1cccc(CCNC(=O)c2ccc3c(c2)-c2ccc(C(=O)NCCc4cccc(OC)c4)c4cccc-3c24)c1` [Example 33, 3,9-Bis{N-[2-(3-methoxy-phenyl)]-ethyl}fluoranthenedicarboxamide]: 45.5 µM. For the compound `NS(=O)(=O)c1ccc(CCNC(=O)c2ccc3c(c2)-c2ccc(C(=O)NCCc4ccc(S(N)(=O)=O)cc4)c4cccc-3c24)cc1` [Example 35, 3,9-Bis[N-[2-(4-sulfamoyl-phenyl)]-ethyl]fluoranthenedicarboxamide], the IC50 was 15.1 µM. The same measure for `O=C(OCc1ccccn1)c1ccc2c(c1)-c1ccc(C(=O)OCc3ccccn3)c3cccc-2c13` [Example 36, 3,9-Bis(2-pyridinylmethyl)fluoranthenedicarboxylate]: 106 µM.
